# Assay results as given in patent publication US20100330200A1, “COMBINATION OF A RETINOID AND A PLATINUM ANTICANCER AGENT” (SIGMA-TAU INDUSTRIE FARMACEUTICHE RIUNITE S.P.A., priority 2006, published 2010).
# “And” between values parts separate entries of the source, which are not always exact repeats. Equal entries are not always repeated. Where two headings read alike, the source gives them in different places.
# Assays:
# [1] = test system: 1A9PTX22; settings: for LCK (gross log10 cell kill) / TVI % Obs.: 1A9PTX22 s.c.
# From the text: (§1) Drug treatment started at different tumor sizes.
# (§2) Cisplatin was delivered intravenously every seventh day for three times (q7d×3).
# (§3) For statistical comparison of tumor volumes in treated vs. control mice the Student's t test (two-sided) was used.
# [2] = test system: A2780 ovarian carcinoma; settings: for LCK (gross log10 cell kill) / TVI % Obs.: A2780 s.c.
# From the text: as §1, §2, §3
# [3] = test system: A2780/DDP; settings: for LCK (gross log10 cell kill) / TVI % Obs.: A2780/DDP s.c.
# From the text: as §1, §2, §3
# [4] = test system: HOC18 ovarian carcinoma
# From the text: as §1, §2, §3
# [5] = test system: MDA-MB231 bone metastases; settings: for Incidence of ostelytic lesions (%) / Incidence of ostelytic lesions (mice/total) / Osteolytic area mm^2 ± SD / Osteolytic area square pixel ± SD: 29 days after tumor implantation, cisplatin 3.1 mg/kg iv q7dx3; for Incidence of ostelytic lesions (%) / Incidence of ostelytic lesions (mice/total) / Osteolytic area mm^2 ± SD / Osteolytic area square pixel ± SD / frequency of osteolysis in tibias compared with the control group: ST1926 25 mg/kg po qdx2/wx3w; for frequency of osteolysis in tibias compared with the control group: radiographs 29 days from injection, cisplatin 3.1 iv q7dx3
# Description: A human breast cancer cell line, MDA-MB231 was cultured in DMEM supplemented with 10% FCS and 1% penicillin-streptomycin solution in a humidified atmosphere of 5% CO2 in air. Cultured used for intratibial injection were at subconfluency. Cells (1×10^5) were suspended in 0.1 ml of PBS and injected into the tibia of female BALB/c-nu/nu mice with the use of a 27-gauge needle under the anesthesia ip of ketamine and xylazine chloride.
# Animals were housed under a light-dark cycle, keeping temperature and humidity constant. Parameters of the animal rooms were assessed as follows: 22±2° C. temperature, 55±10% relative humidity, about 15-20 filtered air changes/hour and 12 hour circadian cycle of artificial light (7 a.m., 7 p.m.). At request, the environmental conditions were monitored and the data are retained in Animal Housing Archives. Drinking water was supplied ad libitum. Each mouse was offered daily a complete pellet diet (GLP 4RF21, Mucedola) throughout the study. The analytical certificates of animal food and water are retained at Sigma-Tau premises. All animals were weighed before starting the experiment and were subdivided into the different dosage groups. Each cage was identified by a paper tag indicating: cage number, group, date of tumor injection, starting date of treatment, name of the test item, dose and route of administration, date of sacrifice.
# Incidence of osteolytic lesions and ostelytic area were evaluated 29 days after tumor implantation.
# [6] = test system: human ovarian carcinoma xenografts; test: Panel of human ovarian carcinoma xenografts, statements over several tumors
# From the text: as §1, §2
# [7] = test system: IGROV-1 ovarian carcinoma; test: i.p. growing IGROV-1 tumor, locoregional treatment, survival; format: in vivo
# Description: The IGROV-1 ovarian carcinoma line was maintained by serial intraperitoneal passages in healthy mice. Tumor grows as ascites and small solid masses. IGROV-1 ascitic cells were collected and prepared as previously described [Pratesi G., Tortoreto M., Zunino F., Reg. Cancer Treat., 1990; 3:40-43] and 2.5×10^6 cells/mouse (in 0.2 ml of saline) were injected intraperitoneally. Mice developed hemorrhagic and diffuse carcinomatosis and eventually died by 20 to 35 days. Animals were inspected daily and weighed three times a week. The median day of death (median survival time: MST) was considered as the experimental end point.
# Experimental groups consisted of seven mice.
# The compound was delivered intraperitoneally at a dose of 10 mg/kg, daily for 5 days a week for 4 weeks (qd×5/w×4w), starting the day after cell injection. Drug activity was assessed as increase in life span (ILS) %, i.e. the percentage increase of MST in treated (T) over control (C) mice (T/C×100−100). Mice alive at the end of experiment (day 88) without disease were considered “long term survivors” (LTS).
# For statistical comparison, curves reporting the percentage of surviving animals over time were estimated by the Kaplan-Meier product limit method and compared with the log-rank test. The test was two-sided.
# [8] = test system: FaDu human squamous pharynx carcinoma; test: FaDu squamous pharynx carcinoma s.c. xenograft; format: in vivo, mouse (human xenograft); settings: ST1926 25 mg/kg oral qdx2/wx3w, carboplatin 40 mg/kg ip q7dx3, combination: carboplatin 1 h before ST1926
# Description: The FaDu human squamous pharynx carcinoma cells (3×10^6 tumor cells) were injected sc in the right flank of CD1 nude female mice.
# [9] = test system: IGROV-1 ovarian carcinoma; settings: in vivo
# [10] = in vivo; settings: female, athymic Swiss nude, mouse, po
# [11] = test system: IGROV-1 ovarian carcinoma; test: s.c. growing IGROV-1 tumor, ST1926 doses and schedules
# [12] = cisplatin 3.1 mg/kg iv q7dx3, 1st day 2
# [13] = HOC18 s.c., cisplatin 3.1 mg/kg iv q7dx3
# [14] = HOC18 s.c., cisplatin 4.7 mg/kg iv q7dx3
# [15] = ST1926 30 mg/kg oral qdx2/wx3w, 1st day 34
# [16] = ST1926 30 mg/kg oral qdx2/wx3w, 1st day 2
# [17] = ST1926 45 mg/kg oral qdx2/wx3w, 1st day 2
# [18] = HOC18 s.c., ST1926 30 mg/kg oral qdx2/wx3w, 1st day 27
# [19] = i.p. growing tumor, 10 mg/kg i.p. qdx5/wx4w
structure (smiles),measurement,setting,value
"N.N.[Cl][Pt][Cl] [Cisplatin, cisplatin]",LCK (gross log10 cell kill),[1]; cisplatin 3.1 mg/kg iv q7dx3,0.3
same,TVI % Obs.,[1]; cisplatin 3.1 mg/kg iv q7dx3,38%
same,LCK (gross log10 cell kill),[1]; cisplatin 4.7 mg/kg iv q7dx3,0.6
same,TVI % Obs.,[1]; cisplatin 4.7 mg/kg iv q7dx3,57%
same,LCK (gross log10 cell kill),[2]; [12],0.4
same,TVI % Obs.,[2]; [12],40%
same,LCK (gross log10 cell kill),[2]; cisplatin 4.7 mg/kg iv q7dx3,1.2
same,TVI % Obs.,[2]; cisplatin 4.7 mg/kg iv q7dx3,80%
same,LCK (gross log10 cell kill),[3]; cisplatin 4.7 mg/kg iv q7dx3,0
same,TVI % Obs.,[3]; cisplatin 4.7 mg/kg iv q7dx3,15%
same,LCK (gross log10 cell kill),[4]; [13],1.0
same,TVI % Obs.,[4]; [13],41%
same,LCK (gross log10 cell kill),[4]; [14],>>1.7
same,TVI % Obs.,[4]; [14],81%
same,NED (not evidence of disease at the end of the experiment),"[4]; HOC18 s.c., cisplatin 4.7 mg/kg iv q7dx3, tumors/total",1/10
same,"complete responses (no evidence of disease at the experiment end), tumors","[4]; HOC18 tumor, dose groups taken together",1/10
same,Incidence of ostelytic lesions (%),[5],71%
same,Incidence of ostelytic lesions (mice/total),[5],5/7
same,Osteolytic area mm^2 ± SD,[5],4.6 ± 1.9 mm^2
same,Osteolytic area square pixel ± SD,[5],458 ± 190 square pixel
same,frequency of osteolysis in tibias compared with the control group,[5],no significant differences
same,body weight loss,[6]; optimal doses of cisplatin,around 20%
"O=C(O)/C=C/c1ccc(-c2ccc(O)c(C34CC5CC(CC(C5)C3)C4)c2)cc1 [ST1926, E-4-(3-(1-adamantyl)-4-hydroxyphenyl)cinnamic acid]",LCK (gross log10 cell kill),[1]; [15],0.3
same,TVI % Obs.,[1]; [15],35%
same,BWL % (highest),"[1]; in vivo, 30 mg/kg",10%
same,LCK (gross log10 cell kill),[2]; [16],0.4
same,TVI % Obs.,[2]; [16],40%
same,BWL % (highest),"[2]; in vivo, 30 mg/kg",5%
same,LCK (gross log10 cell kill),[3]; [17],0.8
same,TVI % Obs.,[3]; [17],41%
same,BWL % (highest),"[3]; in vivo, 45 mg/kg",13%
same,LCK (gross log10 cell kill),[4]; [18],0.4
same,TVI % Obs.,[4]; [18],37%
same,BWL % (highest),"[4]; in vivo, 30 mg/kg",3%
same,survival time over control mice,"[7]; i.p. growing IGROV-1, 10 mg/kg qdx5/wx4 weeks",significantly (P<0.01) increased
same,ILS (increase in life span % in treated over control mice),[7]; [19],91%
same,Tox (No. of dead mice/total no. of mice),[7]; [19],0/7
same,"LTS (long term survivors at the end of experiments, day 88)","[7]; i.p. growing tumor, 10 mg/kg i.p. qdx5/wx4w, 10 mg/kg",2 out of 7 and 2/7
same,TVI,[8],35%
same,Incidence of ostelytic lesions (%),[5],63%
same,Incidence of ostelytic lesions (mice/total),[5],5/8
same,Osteolytic area mm^2 ± SD,[5],3.1 ± 1.0 mm^2
same,Osteolytic area square pixel ± SD,[5],310 ± 106 square pixel
same,tolerability in tumor-bearing mice,"[5]; in vivo, po, 25 mg/kg",well-tolerated
same,frequency of osteolysis in tibias compared with the control group,[5],no significant differences
same,"TV inhibition, all the tumors investigated",[6]; ST1926 30 or 45 mg/kg per os qdx2/w for 2 or 3 weeks,≤ 50%
same,"BWL (body weight loss %, highest)",[9]; 2 mg/kg,12%
same,"BWL (body weight loss %, highest)",[9]; 20 mg/kg,25%
same,MTD,[10],15 mg/kg
same,LCK,[11]; 15 mg/kg oral qdx2/wx2w,0.1
same,TVI %,[11]; 15 mg/kg oral qdx2/wx2w,39%
same,LCK,[11]; 15 mg/kg oral qdx5/wx3w,0.4
same,TVI %,[11]; 15 mg/kg oral qdx5/wx3w,52%
same,LCK,[11]; 5 × 2 mg/kg oral qdx5/wx4w,0.3
same,TVI %,[11]; 5 × 2 mg/kg oral qdx5/wx4w,35%
"N.N.O=C([O-])C1(C(=O)[O-])CCC1.[Pt+2] [carboplatin, reference compound]",TVI,[8],52%
